From PMC10377643, “Exploration of Bis-Cinnamido-Polyamines as Intrinsic Antimicrobial Agents and Antibiotic Enhancers” (Biomolecules, 2023)
Values after ≈ are worked out from the molar mass of the structure shown.

Assays:
P. aeruginosa PAO1 [1] = experiment: Intrinsic MIC, P. aeruginosa PAO1; type: cell-based; conditions: Pseudomonas aeruginosa; P. aeruginosa PAO1; substance alone (no antibiotic / no enhancer); read-out: MIC alone, P. a
Experimental: (§1) Antibiotic enhancer concentrations were determined using previously reported protocols.

K. pneumoniae ATCC 13883 [2] = experiment: Intrinsic MIC, K. pneumoniae ATCC 13883; type: cell-based; conditions: Klebsiella pneumoniae, ATCC13883; K. pneumoniae ATCC 13883; substance alone; read-out: MIC alone, K. p
Experimental: as §1

A. baumannii AYE [3] = experiment: Intrinsic MIC, A. baumannii AYE; type: cell-based; conditions: Acinetobacter baumannii; A. baumannii AYE; substance alone; read-out: MIC alone, A. b
Experimental: as §1

[4] = test system: antimicrobial activity (microbes not named); parameters: method as in PMID 36982955; conditions: cited from earlier work
P. aeruginosa = test system: P. aeruginosa; parameters: method as in PMID 36982955; conditions: cited from earlier work
S. aureus ATCC 25923 = experiment: Antimicrobial MIC, S. aureus; type: cell-based; conditions: Staphylococcus aureus, ATCC25923, mean (n = 3)
Experimental: (§2) The susceptibility of bacterial strains S. aureus (ATCC 25923), E. coli (ATCC 25922) and P. aeruginosa (ATCC 27853) to antibiotics and compounds was determined using protocols reported previously. Additional antimicrobial evaluation against MRSA (ATCC 43300), Klebsiella pneumoniae (ATCC 700603), Acinetobacter baumannii (ATCC 19606), Candida albicans (ATCC 90028) and Cryptococcus neoformans (ATCC 208821) was undertaken at the Community for Open Antimicrobial Drug Discovery at The University of Queensland (Australia) according to their standard protocols reported previously.

MRSA ATCC 43300 = experiment: Antimicrobial MIC, MRSA (CO-ADD); type: cell-based, methicillin-resistant S. aureus; conditions: Staphylococcus aureus; MRSA ATCC 43300; mean (n = 2); read-out: MIC MRSA
Experimental: as §2

P. aeruginosa ATCC 27853 [5] = experiment: Antimicrobial MIC, P. aeruginosa; type: cell-based; conditions: Pseudomonas aeruginosa, ATCC27853, mean (n = 3)
Experimental: as §2

E. coli ATCC 25922 [6] = experiment: Antimicrobial MIC, E. coli; type: cell-based, Escherichia coli; conditions: Escherichia coli, ATCC25922, E. coli ATCC 25922; mean (n = 3)
Experimental: as §2

C. albicans ATCC 90028 = experiment: Antifungal MIC, C. albicans (CO-ADD); type: cell-based; conditions: Candida albicans, ATCC90028, mean (n = 2)
Experimental: as §2

[7] = test system: C. neoformans ATCC 208821; experiment: Antifungal MIC, C. neoformans (CO-ADD); type: cell-based; conditions: Cryptococcus neoformans, ATCC208821, mean (n = 2)
Experimental: as §2

Cytotoxicity assay = type: cell-based, human; conditions: human, HEK293 human embryonic kidney cells, mean (n = 2), read-out: Cytotoxicity (IC50), concentration of compound at 50% cytotoxicity
Experimental: (§3) Cytotoxicity assays were conducted using the protocols previously reported.

[8] = test system: HEK293 human embryonic kidney cells; experiment: Cytotoxicity assay; type: cell-based; conditions: mean (n = 2)
Experimental: as §3

human red blood cells = experiment: Hemolytic assay; type: cell-based; conditions: mean (n = 2)
Experimental: Hemolysis assays were conducted using the protocols previously reported.

P. aeruginosa ATCC 27853 [9] = experiment: Doxycycline enhancement against P. aeruginosa; type: cell-based, Pseudomonas aeruginosa; conditions: doxycycline fixed at 4.5 µM
Experimental: as §1
We then evaluated the set of analogues for the ability to enhance the antibiotic activity of doxycycline against P. aeruginosa ATCC 27853 and of erythromycin against E. coli ATCC 25922 (Table 2). In the case of doxycycline, a fixed concentration of the antibiotic of 4.5 μM, which is twenty-fold lower than the intrinsic MIC 90 μM against this organism, was used. Each of the test compounds was then evaluated at a range of concentrations varying from 3.125 to 50–100 μM, with the upper concentration dependent upon the compounds intrinsic MIC towards P. aeruginosa (Table 1). […] While the observation of cytotoxicity/hemolytic properties of 16a–c, 14f and 13f reduces our interest in these analogues, analogues 13b and 13d were identified as non-toxic and strong enhancers of the action of doxycycline towards P. aeruginosa.

E. coli ATCC 25922 [10] = experiment: Erythromycin enhancement against E. coli; type: cell-based, Escherichia coli; conditions: erythromycin fixed at 10.9 µM (8 µg/mL)
Experimental: as §1

P. aeruginosa PAO1 [11] = experiment: Antibiotic potentiation by 13b, P. aeruginosa PAO1; type: cell-based, Pseudomonas aeruginosa
Experimental: as §1
(§4) The antibiotic-enhancing activities of 13b, the strongest non-toxic doxycycline enhancer, were further evaluated with an expanded set of antibiotics (minocycline, chloramphenicol, vancomycin, nalidixic acid and erythromycin) against three drug-resistant strains of Gram-negative bacteria (P. aeruginosa, K. pneumoniae and A. baumannii) (Table 3). […] However, 13b was able to strongly potentiate the activity of minocycline against P. aeruginosa, K. pneumoniae and A. baumannii (>41-fold, >82-fold and >82-fold, respectively) while also enhancing the activity of doxycycline against P. aeruginosa (>40-fold). The enhancing activity of doxycycline against A. baumannii and K. pneumoniae was not investigated due to its sensitivity to these strains.

K. pneumoniae ATCC 13883 [12] = experiment: Antibiotic potentiation by 13b, K. pneumoniae; type: cell-based, Klebsiella pneumoniae
Experimental: as §1, §4

A. baumannii AYE [13] = experiment: Antibiotic potentiation by 13b, A. baumannii; type: cell-based, Acinetobacter baumannii
Experimental: as §1, §4

With `CCn1cc(C(=O)O)c(=O)c2ccc(C)nc21` [nalidixic acid] the MIC (P. aeruginosa PAO1 [1]) was > 200 µM, the MIC (K. pneumoniae ATCC 13883 [2]) was > 200 µM and the MIC (A. baumannii AYE [3]) was > 200 µM.
In the case of `O=C(CCc1ccccc1)NCCCNCCCCCCNCCCNC(=O)CCc1ccccc1` [Compound 17], the Antimicrobial activity [4] is given as “devoid of antimicrobial activity” and the “Ability to enhance the action of doxycycline towards P. aeruginosa” value (P. aeruginosa) is given as “devoid”.
In the case of `O=C(C=Cc1ccccc1)NCCCNCCCCCCNCCCNC(=O)C=Cc1ccccc1.O=C(O)C(F)(F)F.O=C(O)C(F)(F)F` [Compound 13b, N^1,N^6-Bis(3-cinnamamidopropyl)hexane-1,6-diaminium 2,2,2-trifluoroacetate], the MIC (S. aureus ATCC 25923) is reported as > 200 µM, the MIC (MRSA ATCC 43300) is reported as > 44.5 µM and the MIC (P. aeruginosa ATCC 27853 [5]) is reported as > 200 µM. The MIC (E. coli ATCC 25922 [6]) was 100 µM, the MIC (C. albicans ATCC 90028) was > 44.5 µM and the MIC [7] was 44.5 µM. For the same molecule, the IC50 (Cytotoxicity assay) was > 44.5 µM, the “Cytotoxicity (IC50), concentration of compound at 50% cytotoxicity” value [8] was “non-toxic” and the “Hemolysis (HC10), concentration of compound at 10% hemolytic activity” value (shortened to “Hemolysis (HC10) … at 10% hemolytic activity”) (human red blood cells) was >44.5 µM. For the same molecule, the “Dox/P. a: concentration required to restore doxycycline activity” value (“Dox/P. a: concentration required” below) (P. aeruginosa ATCC 27853 [9]) was 3.125 µM, the “Eryth/E. c: concentration required to restore erythromycin activity” value (“Eryth/E. c: concentration required” below) (E. coli ATCC 25922 [10]) was 25 µM and the “Eryth/E. c: fold change (intrinsic MIC of test compound / combination MIC)” value (E. coli ATCC 25922 [10]) was 4 fold. For the same molecule, the “Fold change, chloramphenicol” value (P. aeruginosa PAO1 [11]; chloramphenicol 2 µg/mL) was > 7 fold, the “Concentration for potentiation of chloramphenicol” value (“Concentration … of chloramphenicol” below) (P. aeruginosa PAO1 [11]; chloramphenicol 2 µg/mL, n = 2) was 38.7 µM and the “Fold change, doxycycline” value (P. aeruginosa PAO1 [11]; doxycycline 2 µg/mL) was > 40 fold. For the same molecule, the “Concentration for potentiation of doxycycline” value (P. aeruginosa PAO1 [11]; doxycycline 2 µg/mL, n = 2) was 7.03 µM, the “Fold change, erythromycin” value (P. aeruginosa PAO1 [11]; erythromycin 2 µg/mL) was > 2 fold and the “Concentration for potentiation of erythromycin” value (“Concentration … of erythromycin” below) (P. aeruginosa PAO1 [11]; erythromycin 2 µg/mL, n = 2) was 136 µM. The “Fold change, minocycline” value (P. aeruginosa PAO1 [11]; minocycline 2 µg/mL) was > 41 fold, the “Concentration for potentiation of minocycline” value (“Concentration … of minocycline” for short) (P. aeruginosa PAO1 [11]; minocycline 2 µg/mL, n = 2) was 6.83 µM and the “Concentration … of chloramphenicol” value (K. pneumoniae ATCC 13883 [12]; chloramphenicol 2 µg/mL, n = 2) was >200 µM. For the same molecule, the “Concentration … of erythromycin” value (K. pneumoniae ATCC 13883 [12]; erythromycin 2 µg/mL, n = 2) was >200 µM, the “Fold change, minocycline” value (K. pneumoniae ATCC 13883 [12]; minocycline 2 µg/mL) was > 82 fold and the “Concentration … of minocycline” value (K. pneumoniae ATCC 13883 [12]; minocycline 2 µg/mL, n = 2) was 3.41 µM. For the same molecule, the “Concentration for potentiation of nalidixic acid” value (K. pneumoniae ATCC 13883 [12]; nalidixic acid 2 µg/mL, n = 2) was >200 µM, the “Fold change, vancomycin” value (K. pneumoniae ATCC 13883 [12]; vancomycin 2 µg/mL) was > 2 fold and the “Concentration for potentiation of vancomycin” value (K. pneumoniae ATCC 13883 [12]; vancomycin 2 µg/mL, n = 2) was 138 µM. The “Fold change, chloramphenicol” value (A. baumannii AYE [13]; chloramphenicol 2 µg/mL) was > 4 fold, the “Concentration … of chloramphenicol” value (A. baumannii AYE [13]; chloramphenicol 2 µg/mL, n = 2) was 77.4 µM and the “Fold change, erythromycin” value (A. baumannii AYE [13]; erythromycin 2 µg/mL) was > 2 fold. The “Concentration … of erythromycin” value (A. baumannii AYE [13]; erythromycin 2 µg/mL, n = 2) was 136 µM, the “Fold change, minocycline” value (A. baumannii AYE [13]; minocycline 2 µg/mL) was > 82 fold and the “Concentration … of minocycline” value (A. baumannii AYE [13]; minocycline 2 µg/mL, n = 2) was 3.41 µM. The “Concentration for potentiation of nalidixic acid” value (A. baumannii AYE [13]; nalidixic acid 2 µg/mL, n = 2) was >200 µM, the “Fold change, vancomycin” value (A. baumannii AYE [13]; vancomycin 2 µg/mL) was > 2 fold and the “Concentration for potentiation of vancomycin” value (A. baumannii AYE [13]; vancomycin 2 µg/mL, n = 2) was 138 µM. The MIC (P. aeruginosa PAO1 [1]) was > 278 µM, the MIC (K. pneumoniae ATCC 13883 [2]) was > 278 µM and the MIC (A. baumannii AYE [3]) was > 278 µM.
In the case of `O=C(C=Cc1ccccc1)NCCCNCCCCCCCCNCCCNC(=O)C=Cc1ccccc1.O=C(O)C(F)(F)F.O=C(O)C(F)(F)F` [Compound 13d, N^1,N^8-Bis(3-cinnamamidopropyl)octane-1,8-diaminium 2,2,2-trifluoroacetate], the MIC (S. aureus ATCC 25923) is reported as 100 µM, the MIC (MRSA ATCC 43300) is reported as 42.8 µM and the MIC (P. aeruginosa ATCC 27853 [5]) is reported as > 200 µM. For the same molecule, the MIC (E. coli ATCC 25922 [6]) was 100 µM, the MIC (C. albicans ATCC 90028) was > 42.8 µM and the MIC [7] was 42.8 µM. For the same molecule, the IC50 (Cytotoxicity assay) was > 42.9 µM, the “Cytotoxicity (IC50), concentration of compound at 50% cytotoxicity” value [8] was “non-toxic” and the “Hemolysis (HC10) … at 10% hemolytic activity” value (human red blood cells) was >42.9 µM. For the same molecule, the “Dox/P. a: concentration required” value (P. aeruginosa ATCC 27853 [9]) was 6.25 µM, the “Eryth/E. c: concentration required” value (E. coli ATCC 25922 [10]) was 25 µM and the “Eryth/E. c: fold change (intrinsic MIC of test compound / combination MIC)” value (E. coli ATCC 25922 [10]) was 4 fold.
In the case of `O=C(C=Cc1ccccc1)NCCCNCCCCCCCNCCCNC(=O)C=Cc1ccccc1.O=C(O)C(F)(F)F.O=C(O)C(F)(F)F` [Compound 13c, N^1,N^7-Bis(3-cinnamamidopropyl)heptane-1,7-diaminium 2,2,2-trifluoroacetate], the MIC (S. aureus ATCC 25923) is reported as > 273 µM, the MIC (MRSA ATCC 43300) is reported as > 43.7 µM and the MIC (P. aeruginosa ATCC 27853 [5]) is reported as > 273 µM. For the same molecule, the MIC (E. coli ATCC 25922 [6]) was > 273 µM, the MIC (C. albicans ATCC 90028) was > 43.7 µM and the MIC [7] was > 43.7 µM. For the same molecule, the IC50 (Cytotoxicity assay) was > 43.7 µM, the “Hemolysis (HC10) … at 10% hemolytic activity” value (human red blood cells) was >43.7 µM and the “Dox/P. a: concentration required” value (P. aeruginosa ATCC 27853 [9]) was 68 µM. For the same molecule, the “Dox/P. a: fold change (intrinsic MIC of test compound / combination MIC)” value (P. aeruginosa ATCC 27853 [9]) was > 4 fold, the “Eryth/E. c: concentration required” value (E. coli ATCC 25922 [10]) was 136 µM and the “Eryth/E. c: fold change (intrinsic MIC of test compound / combination MIC)” value (E. coli ATCC 25922 [10]) was > 2 fold.
Work on `C[C@H]1c2cccc(O)c2C(=O)C2=C(O)[C@]3(O)C(=O)C(C(N)=O)=C(O)[C@@H](N(C)C)[C@@H]3[C@@H](O)[C@@H]21` [doxycycline, reference compound] yielded an MIC (P. aeruginosa ATCC 27853 [5]) of 90 µM (≈ 40 µg/mL) and an MIC (P. aeruginosa PAO1 [1]) of 144 µM.
